The source of these data is paper PMC4494873 (Bioorganic & medicinal chemistry letters, 2015).

A word on the IC50: it is the concentration that gives 50% inhibition. One may read the Kd as the equilibrium constant for the complex coming apart. The low end stands for a tighter complex, the high end for a looser complex.

“Also recorded” adds a separate entry of the source.

In data set [1] the test system is Multiple HSV-2 (including 186). To be noted: Vero, multiple HSV-2 isolates including 186; ref [32], [33]; cited from earlier work.
The test system of a further data set is HIV-1 virus. In words: Anti-HIV activity: Jurkat cells infected with HIV-1, MTT assay and RT assay. Format: cell-based. To be noted: 1 μg/mL or 5 μg/mL, compared with DMSO and AZT. For orientation: Tetrazolium dyes change colour on reduction, which living cells bring about.
Another data set deals with HSV-2 186. In words: Viral replication yield reduction assay. In kind it is cell-based, herpes simplex virus type-2 (HSV-2). Conditions: selectivity index, Vero.
The conditions of data set [2]: cited from earlier work.
The next data set deals with HSA. Conditions: betulinic acid 0.01−0.1 mM, HSA 0.025 mM, fluorescence excitation at 285 nm; ref [34]; cited from earlier work.
Data set [3] deals with human serum albumin (HSA) (Homo sapiens, UniProt P02768). In words: Fluorescence titration with HSA. In kind it is binding.
The next data set has as its system Vero cells. In words: Cytotoxicity in Vero cells.

human serum albumin (HSA), sequence (P02768 25-609): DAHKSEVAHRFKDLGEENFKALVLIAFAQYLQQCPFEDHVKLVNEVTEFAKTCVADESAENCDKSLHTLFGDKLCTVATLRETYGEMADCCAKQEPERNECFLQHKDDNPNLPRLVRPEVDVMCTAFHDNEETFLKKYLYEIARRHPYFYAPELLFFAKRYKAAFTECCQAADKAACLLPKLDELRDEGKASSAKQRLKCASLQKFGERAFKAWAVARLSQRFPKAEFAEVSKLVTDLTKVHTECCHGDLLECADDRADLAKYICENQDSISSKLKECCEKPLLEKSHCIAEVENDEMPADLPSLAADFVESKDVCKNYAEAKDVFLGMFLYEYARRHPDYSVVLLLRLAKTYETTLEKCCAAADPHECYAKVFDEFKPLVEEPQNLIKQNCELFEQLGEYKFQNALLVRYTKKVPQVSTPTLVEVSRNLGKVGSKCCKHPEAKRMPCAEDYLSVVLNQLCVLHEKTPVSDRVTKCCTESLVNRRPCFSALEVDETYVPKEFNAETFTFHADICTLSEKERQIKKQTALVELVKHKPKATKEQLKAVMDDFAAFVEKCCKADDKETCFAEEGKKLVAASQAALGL

Turning to `Nc1nc2c(ncn2COCCO)c(=O)[nH]1` [Acyclovir], the IC50 in data set [1] was 100 to 10000 nM.

Turning to `C=C(C)[C@@H]1CC[C@]2(C(=O)O)CC[C@]3(C)[C@H](CC[C@@H]4[C@@]5(C)CC[C@H](O)C(C)(C)[C@@H]5CC[C@]43C)[C@@H]12` [Compound 1, 3β-hydroxy-lup-20(29)-en-28-oic acid], in the data set on HIV-1 virus, the “inhibitory activity of HIV-1 RT (in words)” value is listed as “no inhibitory activity”. In the data set on HSV-2 186, this molecule showed an SI greater than 62.5. Also, in data set [2] (25 °C, ref [23]), the “solubility in DMSO” value is recorded as 5 % (w/v) and the solubility in ethanol was 1 % (w/v). The solubility in water entry in data set [2] (room temperature, ref [22]) is “about 0.02 μg mL^−1”. The “binding constant with HSA” value in the data set on HSA was 1.685e+06 M⁻¹. In data set [3] (Kd (285 nm), fluorescence excitation at 285 nm), the Kd came to 4500 nM. Also, the affinity in data set [3] (Kd (295 nm), fluorescence excitation at 295 nm), expressed as Kd, was 1300 nM. For the same molecule, in the data set on Vero cells, the “cellular cytotoxicity (in words)” value was “low cytotoxicity; also recorded: minimal cellular cytotoxicity”.
